# Read-outs that look alike come from different tables or passages of the source.
# Key:
# His-Tagged hOGA = molecular target: T1, His-Tagged hOGA (Homo sapiens, UniProt O60502); experiment: Human O-GlcNAcase enzyme inhibition assay; type: biochemical
# T1 sequence (O60502 1-916): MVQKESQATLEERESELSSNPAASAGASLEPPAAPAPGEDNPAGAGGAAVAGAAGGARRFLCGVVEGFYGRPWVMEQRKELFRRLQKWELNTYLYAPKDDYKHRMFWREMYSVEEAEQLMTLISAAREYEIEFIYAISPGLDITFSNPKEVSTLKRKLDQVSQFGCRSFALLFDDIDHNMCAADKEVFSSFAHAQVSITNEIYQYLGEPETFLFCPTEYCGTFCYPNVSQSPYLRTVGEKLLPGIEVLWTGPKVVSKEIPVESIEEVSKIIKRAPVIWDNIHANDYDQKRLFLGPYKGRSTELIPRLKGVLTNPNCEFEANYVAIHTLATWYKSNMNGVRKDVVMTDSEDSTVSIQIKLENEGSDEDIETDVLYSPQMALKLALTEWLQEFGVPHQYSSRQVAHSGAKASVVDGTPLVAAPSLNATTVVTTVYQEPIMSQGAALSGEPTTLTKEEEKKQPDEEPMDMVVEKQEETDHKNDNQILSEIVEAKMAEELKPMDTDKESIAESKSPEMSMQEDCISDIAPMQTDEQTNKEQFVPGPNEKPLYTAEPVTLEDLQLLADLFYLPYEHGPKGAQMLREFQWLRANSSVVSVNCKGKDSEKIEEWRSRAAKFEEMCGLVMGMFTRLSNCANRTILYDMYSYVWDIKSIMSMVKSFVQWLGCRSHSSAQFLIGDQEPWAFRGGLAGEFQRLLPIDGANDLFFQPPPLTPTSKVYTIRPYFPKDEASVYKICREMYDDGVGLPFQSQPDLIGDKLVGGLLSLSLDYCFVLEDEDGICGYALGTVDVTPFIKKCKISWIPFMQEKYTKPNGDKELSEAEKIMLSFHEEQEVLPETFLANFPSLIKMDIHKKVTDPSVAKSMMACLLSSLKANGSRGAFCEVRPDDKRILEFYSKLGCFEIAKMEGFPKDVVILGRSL
# Protocol: The following reaction components were added to a final volume of 10 μL in Mcllvaine's Buffer (pH 6.5): 20 nM His-Tagged hOGA and 10 μM Fluorescein mono-beta-D-(2-deoxy-2-N-acetyl) glucopyranoside (FL-GlcNAc; Marker Gene Technologies Inc, Part # M1485). […] The amount of fluorescence measured was plotted against the concentration of inhibitor to produce a sigmoidal dose response curve, from which an IC50 was calculated.
# [1] = system: B35 rat neuroblastoma cells; experiment: Cellular O-GlcNAcylation assay (tau O-GlcNAc S400, ICC); type: cell-based; settings: Neuroblastoma cell, 16 h, tau O-GlcNAcylated at serine 400
# Protocol: The following day cells were treated with appropriate concentration of a solution of inhibitor for 16 h at 37° C. in 5% CO2. Cells were fixed in 100 μl 4% paraformaldehyde for 15 min at room temperature, followed by three washes in PBS buffer. The cells were then permeabilized with 0.1% Triton X-100 for 60 min at room temperature. After three washes in PBS the cells were blocked with 10% goat serum containing 1% BSA in PBS buffer for two hours at room temperature. The cells were then incubated with a monoclonal rabbit antibody specific for tau O-GlcNAcylated at serine 400 (Epitomics) at a 1:1000 dilution overnight at 4° C. […] To calculate an EC50 the total peak intensity was plotted against the concentration of inhibitor to produce a sigmoidal dose response curve.
# [2] = 20 nM His-Tagged hOGA, 10 μM FL-GlcNAc, pH 6.5, 60 min, read-out: hOGA enzyme inhibition (IC50)
SMILES,IC50 (His-Tagged hOGA; [2]),EC50 [1],IC50 (His-Tagged hOGA)
"CC(=O)Nc1ncc(CN(C)CCCc2ccccc2)s1 [Compound 21, N-(5-{[methyl-(3-phenyl-propyl)-amino]-methyl}-thiazol-2-yl)-acetamide]",< 0.2 µM,1 to 10 µM,–
"CC(=O)Nc1ncc(CN2CC(c3ccccc3)C2)s1 [Compound 22, N-[5-(3-phenyl-azetidin-1-ylmethyl)-thiazol-2-yl]-acetamide]",0.2 to 1 µM,1 to 10 µM,–
"CC(=O)Nc1ncc(CN2CCCCC2)s1 [Compound 25, N-(5-piperidin-1-ylmethyl-thiazol-2-yl)-acetamide]",1 to 10 µM,0.2 to 1 µM,–
"CC(=O)Nc1ncc(CN2CCC(C(C)C)CC2)s1 [Compound 26, N-[5-(4-isopropylpiperidin-1-ylmethyl)thiazol-2-yl]-acetamide]",< 0.2 µM,1 to 10 µM,–
"CC(=O)Nc1ncc(CN2CCC(C3CCCCC3)CC2)s1 [Compound 27, N-(5-((4-cyclohexylpiperidin-1-yl)methyl)thiazol-2-yl)acetamide]",< 0.2 µM,< 0.2 µM,–
"CC(=O)Nc1ncc(CN2CCC(Cc3ccccc3)CC2)s1 [Compound 28, N-(5-((4-benzylpiperidin-1-yl)methyl)thiazol-2-yl)acetamide]",–,< 0.2 µM,< 0.2 µM
"CC(=O)Nc1ncc(CN2CCCC(c3ccccc3)C2)s1 (stereo not drawn) [Compound 29, N-(5-((3-phenylpiperidin-1-yl)methyl)thiazol-2-yl)acetamide]",< 0.2 µM,1 to 10 µM,–
"CC(=O)Nc1ncc(CN2CCC(c3cccc(C)c3)CC2)s1 [Compound 31, N-(5-((4-(m-tolyl)piperidin-1-yl)methyl)thiazol-2-yl)acetamide]",< 0.2 µM,< 0.2 µM,–
"COc1cccc(C2CCN(Cc3cnc(NC(C)=O)s3)CC2)c1 [Compound 32, N-(5-((4-(3-methoxyphenyl)piperidin-1-yl)methyl)thiazol-2-yl)acetamide]",< 0.2 µM,0.2 to 1 µM,–
"CC(=O)Nc1ncc(CN2CCC(c3ccc(C#N)cc3)CC2)s1 [Compound 36, N-(5-((4-(4-cyanophenyl)piperidin-1-yl)methyl)thiazol-2-yl)acetamide]",0.2 to 1 µM,0.2 to 1 µM,–
"CC(=O)Nc1ncc(CN2CCC(c3ccc(O)cc3)CC2)s1 [Compound 38, N-(5-((4-(4-hydroxyphenyl)piperidin-1-yl)methyl)thiazol-2-yl)acetamide]",< 0.2 µM,0.2 to 1 µM,–
"CC(=O)Nc1ncc(C(C)N2CCC(c3ccccc3)CC2)s1 (stereo not drawn) [Compound 40, N-(5-(1-(4-phenylpiperidin-1-yl)ethyl)thiazol-2-yl)acetamide]",0.2 to 1 µM,0.2 to 1 µM,–
"CC(=O)Nc1ncc(CN2CCC(F)(c3ccccc3)CC2)s1 [Compound 41, N-[5-(4-fluoro-4-phenyl-piperidin-1-ylmethyl)-thiazol-2-yl]-acetamide]",1 to 10 µM,1 to 10 µM,–
"CC(=O)Nc1ncc(CN2CCC(c3ccc(F)cc3)CC2)s1 [Compound 42, N-(5-((4-(4-fluorophenyl)piperidin-1-yl)methyl)thiazol-2-yl)acetamide]",0.2 to 1 µM,0.2 to 1 µM,–
"CC(=O)Nc1ncc(CN2CCC(c3ccc(C(=O)O)cc3)CC2)s1 [Compound 45, 4-(1-((2-acetamidothiazol-5-yl)methyl)piperidin-4-yl)benzoic acid]",0.2 to 1 µM,1 to 10 µM,–

# Other lines, results leading:
IC50 (His-Tagged hOGA; [2]),EC50 [1],IC50 (His-Tagged hOGA),SMILES
0.2 to 1 µM,0.2 to 1 µM,–,"CC(=O)Nc1ncc(CN2CCC(c3ccccc3F)CC2)s1 [Compound 30, N-(5-((4-(2-fluorophenyl)piperidin-1-yl)methyl)thiazol-2-yl)acetamide]"
0.2 to 1 µM,0.2 to 1 µM,–,"COc1ccccc1C1CCN(Cc2cnc(NC(C)=O)s2)CC1 [Compound 33, N-(5-((4-(2-methoxyphenyl)piperidin-1-yl)methyl)thiazol-2-yl)acetamide]"
1 to 10 µM,0.2 to 1 µM,–,"CC(=O)Nc1ncc(CN2CCC(c3ccccc3C#N)CC2)s1 [Compound 35, N-(5-((4-(2-cyanophenyl)piperidin-1-yl)methyl)thiazol-2-yl)acetamide]"
0.2 to 1 µM,< 0.2 µM,–,"CC(=O)Nc1ncc(CN2CCC(c3ccccc3O)CC2)s1 [Compound 37, N-(5-((4-(2-hydroxyphenyl)piperidin-1-yl)methyl)thiazol-2-yl)acetamide]"
0.2 to 1 µM,0.2 to 1 µM,–,"CC(=O)Nc1ncc(CN2CCC(c3cccc(O)c3)CC2)s1 [Compound 39, N-(5-((4-(3-hydroxyphenyl)piperidin-1-yl)methyl)thiazol-2-yl)acetamide]"
1 to 10 µM,0.2 to 1 µM,–,"CC(=O)Nc1ncc(CN2CCC(c3ccccc3C)CC2)s1 [Compound 43, N-(5-((4-(o-tolyl)piperidin-1-yl)methyl)thiazol-2-yl)acetamide]"

# Source: US10301299B2, “Glycosidase inhibitors” (Merck Patent GmbH, priority 2013, dated 2019)
